Legend:
[1] = tested on: P. falciparum Dd2^T93S; parameters: key to Phenotype, Dd2^T93S: S: sensitive; R: resistant; details: cited from earlier work
[2] = tested on: P. falciparum FCB^KD1; experiment: ABS susceptibility, pfmdr1-modified line; assay type: cell-based; details: Plasmodium falciparum
Protocol: (§1) P. falciparum ABS parasites were cultured at 3% hematocrit in human O^+ RBCs in RPMI-1640 media supplemented with 25 mM HEPES, 50 mg/L hypoxanthine, 2 mM L-glutamine, 0.21% sodium bicarbonate, 0.5% (w/v) AlbuMAXII (Invitrogen) and 10 μg/mL gentamycin. Culture flasks were kept in modular incubator chambers (Billups-Rothenberg) in a 5% O2, 5% CO2, and 90% N2 atmosphere at 37°C. Synchronized ring-stage parasites were obtained by two consecutive rounds of treatment with 5% D-sorbitol in 48-hour intervals. […] This was done by exposing cultures at 1% hematocrit and 0.3% parasitemia in 96-well plates in the presence of drugs in a two-fold 10 or 12-point serial dilution in duplicate along with drug-free controls. After a 72-hour incubation, parasite survival was assessed by flow cytometry on an iQue flow cytometer (Sartorius) using SYBR Green and MitoTracker Deep Red FM (Life Technologies) as nuclear stain and vital dye, respectively. Parasite survival was determined as a percentage relative to drug-free control. IC50 values were interpolated from log concentration versus response curves in Prism 9 (GraphPad Prism Software Inc.).

[3] = tested on: P. falciparum FCB; experiment: ABS susceptibility, pfmdr1-modified line; assay type: cell-based; details: Plasmodium falciparum
Protocol: as §1

[4] = tested on: P. falciparum NF10^NF; experiment: ABS susceptibility, pfmdr1-modified line; assay type: cell-based; details: Plasmodium falciparum
Protocol: as §1

[5] = tested on: P. falciparum NF10^YF; experiment: ABS susceptibility, pfmdr1-modified line; assay type: cell-based; details: Plasmodium falciparum
Protocol: as §1

[6] = Dd2T93S, mean ± SEM, ref 2 (Dhingra et al., 2019)

In the case of CCN(CC)CCCC(C)Nc1ccnc2cc(Cl)ccc12 (centres unmarked) [CQ, chloroquine], the IC50 [1, 6] is given as 61.9 ± 7.6 nM, the IC90 [1, 6] is given as 141 ± 6.3 nM and the “Phenotype, Dd2^T93S” value ([1]; ref [19],[20],[51]) is given as “R”.

COc1cc2nccc(Nc3cccc(Oc4ccccc4)c3)c2cc1OC [LDT-623] gave an IC50 ([2]; read-out: IC50 FCBKD1) of 488 ± 12 nM, an IC90 ([2]; read-out: IC90 FCBKD1) of 7650 ± 1120 nM and an IC50 ([3]; read-out: IC50 FCB) of 414 ± 12.9 nM. It also gave an IC90 ([3]; read-out: IC90 FCB) of 4430 ± 164 nM, an IC50 ([4]; read-out: IC50 NF10NF) of 400 ± 28.2 nM and an IC90 ([4]; read-out: IC90 NF10NF) of 580 ± 13 nM. The IC50 ([5]; read-out: IC50 NF10YF) was 360.2 ± 1.9 nM and the IC90 ([5]; read-out: IC90 NF10YF) was 562.9 ± 2.8 nM.

Source: publication PMC11521309, “A novel 4-aminoquinoline chemotype with multistage antimalarial activity and lack of cross-resistance with PfCRT and PfMDR1 mutants” (PLOS Pathogens, 2024)
